Source: the kinase profiling compilation of Christmann-Franck et al. (2016)

How the values were obtained:
Assay in all cases: KINOMEscan competition binding
Details in all cases: compound 10.0 µM
[1] = target: CDKL5 (human) (UniProt O76039)
[2] = target: IRAK1 (human) (UniProt P51617)
[3] = target: SBK1 (human) (UniProt Q52WX2)
[4] = test system: PIK3CA (human), P42336 [E545K]
[5] = target: MATK (human) (UniProt P42679)
[6] = target: STK38 (human) (UniProt Q15208)
[7] = target: PIK3CA (human) (UniProt P42336)
[8] = target: HUNK (human) (UniProt P57058)
HUNK (human), sequence (P57058 whole entry, looked up): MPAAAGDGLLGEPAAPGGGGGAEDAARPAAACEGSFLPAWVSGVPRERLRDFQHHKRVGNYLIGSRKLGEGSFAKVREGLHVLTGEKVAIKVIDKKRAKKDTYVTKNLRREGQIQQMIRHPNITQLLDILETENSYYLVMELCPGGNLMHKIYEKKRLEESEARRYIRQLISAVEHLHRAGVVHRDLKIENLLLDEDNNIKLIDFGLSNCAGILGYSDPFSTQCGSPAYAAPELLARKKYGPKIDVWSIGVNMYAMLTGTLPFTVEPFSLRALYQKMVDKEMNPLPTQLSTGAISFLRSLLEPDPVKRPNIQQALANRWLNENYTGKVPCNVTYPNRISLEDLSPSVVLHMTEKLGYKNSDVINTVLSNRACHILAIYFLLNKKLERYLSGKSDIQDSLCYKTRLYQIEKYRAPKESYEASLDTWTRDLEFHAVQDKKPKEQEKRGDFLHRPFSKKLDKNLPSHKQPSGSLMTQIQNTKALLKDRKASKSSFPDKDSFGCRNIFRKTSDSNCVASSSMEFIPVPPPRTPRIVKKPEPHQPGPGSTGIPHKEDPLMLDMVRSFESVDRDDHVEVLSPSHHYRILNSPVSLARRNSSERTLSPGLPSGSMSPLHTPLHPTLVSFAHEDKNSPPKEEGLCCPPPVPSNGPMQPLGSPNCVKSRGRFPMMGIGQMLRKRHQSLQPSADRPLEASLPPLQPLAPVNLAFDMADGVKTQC

[9] = test system: FLT3 (human), P36888 [K663Q]
[10] = target: EPHB6 (human) (UniProt O15197)
[11] = target: HIPK3 (human) (UniProt Q9H422)
[12] = target: NEK4 (human) (UniProt P51957)
NEK4 (human), sequence (P51957 whole entry, looked up): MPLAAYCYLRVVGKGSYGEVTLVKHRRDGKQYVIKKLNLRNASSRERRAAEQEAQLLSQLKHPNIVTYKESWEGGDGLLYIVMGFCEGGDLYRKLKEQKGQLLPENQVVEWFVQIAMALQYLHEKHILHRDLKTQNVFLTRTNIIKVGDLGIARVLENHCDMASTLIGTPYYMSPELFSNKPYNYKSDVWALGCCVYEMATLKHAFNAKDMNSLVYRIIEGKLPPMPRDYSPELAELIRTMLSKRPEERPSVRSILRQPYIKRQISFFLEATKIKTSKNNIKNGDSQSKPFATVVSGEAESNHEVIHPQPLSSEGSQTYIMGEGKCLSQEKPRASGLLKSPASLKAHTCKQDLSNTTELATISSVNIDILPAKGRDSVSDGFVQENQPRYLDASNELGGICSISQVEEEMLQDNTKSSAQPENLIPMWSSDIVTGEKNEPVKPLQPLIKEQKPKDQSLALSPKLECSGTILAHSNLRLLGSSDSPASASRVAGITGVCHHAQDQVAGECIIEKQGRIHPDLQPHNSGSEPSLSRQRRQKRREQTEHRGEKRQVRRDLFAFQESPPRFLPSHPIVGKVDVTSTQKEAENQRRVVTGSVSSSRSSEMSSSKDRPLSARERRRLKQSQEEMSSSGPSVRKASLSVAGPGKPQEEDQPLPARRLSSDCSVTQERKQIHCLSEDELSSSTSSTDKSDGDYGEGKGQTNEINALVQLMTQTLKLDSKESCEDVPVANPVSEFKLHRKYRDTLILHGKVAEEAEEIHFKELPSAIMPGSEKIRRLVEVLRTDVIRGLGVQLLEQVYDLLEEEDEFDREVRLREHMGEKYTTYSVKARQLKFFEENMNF

[13] = target: PIP5K1C (human) (UniProt O60331)
[14] = target: NEK11 (human) (UniProt Q8NG66)
[15] = target: DDR1 (human) (UniProt Q08345)
[16] = target: TIE1 (human) (UniProt P35590)
[17] = target: PI4KB (human) (UniProt Q9UBF8)
[18] = target: NEK3 (human) (UniProt P51956)
[19] = target: STK32A (human) (UniProt Q8WU08)
STK32A (human), sequence (Q8WU08 whole entry, looked up): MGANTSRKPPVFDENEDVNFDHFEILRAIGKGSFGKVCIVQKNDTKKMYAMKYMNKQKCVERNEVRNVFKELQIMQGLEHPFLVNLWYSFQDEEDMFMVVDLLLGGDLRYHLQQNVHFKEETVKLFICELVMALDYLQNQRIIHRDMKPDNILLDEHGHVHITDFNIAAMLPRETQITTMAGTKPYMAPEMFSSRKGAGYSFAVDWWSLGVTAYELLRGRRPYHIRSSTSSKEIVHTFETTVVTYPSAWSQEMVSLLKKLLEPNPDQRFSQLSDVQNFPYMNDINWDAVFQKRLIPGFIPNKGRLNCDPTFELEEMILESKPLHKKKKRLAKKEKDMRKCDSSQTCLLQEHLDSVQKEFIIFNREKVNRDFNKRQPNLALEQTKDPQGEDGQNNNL

[20] = target: ERN1 (human) (UniProt O75460)
[21] = target: LRRK2 (human) (UniProt Q5S007)
[22] = target: PKN3 (M.tuberculosis) (UniProt Q6P5Z2)
PKN3 (M.tuberculosis), sequence (Q6P5Z2 whole entry, looked up): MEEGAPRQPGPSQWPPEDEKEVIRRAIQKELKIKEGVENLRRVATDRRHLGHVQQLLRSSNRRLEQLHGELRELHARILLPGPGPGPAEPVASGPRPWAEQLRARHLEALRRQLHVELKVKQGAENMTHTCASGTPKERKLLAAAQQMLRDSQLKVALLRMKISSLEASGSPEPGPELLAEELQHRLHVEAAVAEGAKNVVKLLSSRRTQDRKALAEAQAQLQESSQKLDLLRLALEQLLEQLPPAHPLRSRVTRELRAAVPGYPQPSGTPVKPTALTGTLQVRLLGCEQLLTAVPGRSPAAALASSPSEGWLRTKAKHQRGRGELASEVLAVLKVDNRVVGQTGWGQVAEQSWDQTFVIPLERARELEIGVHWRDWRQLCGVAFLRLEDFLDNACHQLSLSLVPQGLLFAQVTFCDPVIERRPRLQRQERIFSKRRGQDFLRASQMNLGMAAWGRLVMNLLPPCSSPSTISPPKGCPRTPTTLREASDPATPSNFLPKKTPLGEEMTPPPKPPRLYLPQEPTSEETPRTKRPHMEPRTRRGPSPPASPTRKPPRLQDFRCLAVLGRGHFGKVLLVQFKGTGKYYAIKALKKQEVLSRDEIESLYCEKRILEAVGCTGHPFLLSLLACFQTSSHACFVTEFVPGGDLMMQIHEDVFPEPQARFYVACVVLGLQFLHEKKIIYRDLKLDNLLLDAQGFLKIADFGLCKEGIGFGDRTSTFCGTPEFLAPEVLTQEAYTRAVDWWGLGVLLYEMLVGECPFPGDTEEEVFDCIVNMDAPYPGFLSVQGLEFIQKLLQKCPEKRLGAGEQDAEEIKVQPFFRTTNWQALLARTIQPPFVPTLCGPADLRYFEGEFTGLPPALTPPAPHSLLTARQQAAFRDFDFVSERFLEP

[23] = target: DYRK2 (human) (UniProt Q92630)
[24] = target: EIF2AK1 (human) (UniProt Q9BQI3)
EIF2AK1 (human), sequence (Q9BQI3 whole entry, looked up): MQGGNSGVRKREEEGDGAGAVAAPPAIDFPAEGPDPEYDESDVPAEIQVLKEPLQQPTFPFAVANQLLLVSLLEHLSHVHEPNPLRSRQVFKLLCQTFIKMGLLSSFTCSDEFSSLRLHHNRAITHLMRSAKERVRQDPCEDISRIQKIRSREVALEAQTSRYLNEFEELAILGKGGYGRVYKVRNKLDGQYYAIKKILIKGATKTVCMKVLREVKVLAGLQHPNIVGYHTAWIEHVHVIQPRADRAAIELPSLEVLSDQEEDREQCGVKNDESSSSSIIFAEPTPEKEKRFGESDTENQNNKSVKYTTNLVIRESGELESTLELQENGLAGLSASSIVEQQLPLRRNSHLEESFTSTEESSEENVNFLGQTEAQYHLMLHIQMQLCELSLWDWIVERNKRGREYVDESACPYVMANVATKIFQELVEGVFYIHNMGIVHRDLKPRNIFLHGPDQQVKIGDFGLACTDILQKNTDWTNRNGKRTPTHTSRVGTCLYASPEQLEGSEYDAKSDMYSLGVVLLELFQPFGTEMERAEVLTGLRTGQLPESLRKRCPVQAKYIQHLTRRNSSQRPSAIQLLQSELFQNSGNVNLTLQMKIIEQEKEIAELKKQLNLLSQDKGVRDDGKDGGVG

[25] = target: ERBB3 (human) (UniProt P21860)
[26] = target: ROCK1 (human) (UniProt Q13464)
[27] = target: PRPF4B (human) (UniProt Q13523)
PRPF4B (human), sequence (Q13523 whole entry, looked up): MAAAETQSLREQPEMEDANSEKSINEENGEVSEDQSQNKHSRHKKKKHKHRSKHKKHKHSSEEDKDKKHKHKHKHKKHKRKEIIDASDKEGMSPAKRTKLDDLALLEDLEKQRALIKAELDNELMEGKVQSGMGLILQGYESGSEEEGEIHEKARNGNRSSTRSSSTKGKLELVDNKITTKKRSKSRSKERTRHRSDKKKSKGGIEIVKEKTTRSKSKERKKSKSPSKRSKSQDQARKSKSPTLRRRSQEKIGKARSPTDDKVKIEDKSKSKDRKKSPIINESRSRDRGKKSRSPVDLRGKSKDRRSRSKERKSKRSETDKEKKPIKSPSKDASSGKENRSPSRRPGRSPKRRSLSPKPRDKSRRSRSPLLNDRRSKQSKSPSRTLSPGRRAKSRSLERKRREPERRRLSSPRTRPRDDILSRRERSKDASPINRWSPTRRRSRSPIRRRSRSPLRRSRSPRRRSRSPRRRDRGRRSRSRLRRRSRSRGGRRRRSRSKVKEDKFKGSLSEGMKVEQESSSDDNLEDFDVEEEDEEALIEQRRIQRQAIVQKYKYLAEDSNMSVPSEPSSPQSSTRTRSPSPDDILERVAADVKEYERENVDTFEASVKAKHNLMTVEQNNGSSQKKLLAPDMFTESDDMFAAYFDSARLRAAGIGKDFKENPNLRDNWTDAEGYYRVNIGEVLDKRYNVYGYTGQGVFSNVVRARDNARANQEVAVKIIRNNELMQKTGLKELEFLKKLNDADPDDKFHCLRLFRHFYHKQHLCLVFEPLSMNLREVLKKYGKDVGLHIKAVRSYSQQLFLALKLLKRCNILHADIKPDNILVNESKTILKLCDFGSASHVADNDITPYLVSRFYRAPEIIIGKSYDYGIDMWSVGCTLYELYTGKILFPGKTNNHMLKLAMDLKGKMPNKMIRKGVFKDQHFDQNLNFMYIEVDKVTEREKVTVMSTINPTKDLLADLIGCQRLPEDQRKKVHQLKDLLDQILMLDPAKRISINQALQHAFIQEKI

[28] = target: CDKL1 (human) (UniProt Q00532)
[29] = target: CDKL3 (human) (UniProt Q8IVW4)
[30] = target: DSTYK (human) (UniProt Q6XUX3)
[31] = test system: PIK3CA (human), P42336 [E545A]
[32] = target: MAK (human) (UniProt P20794)
[33] = target: HIPK4 (human) (UniProt Q8NE63)
[34] = target: RPS6KB1 (human) (UniProt P23443)
[35] = target: TRPM6 (human) (UniProt Q9BX84)
[36] = target: MAP2K5 (human) (UniProt Q13163)
[37] = target: OXSR1 (human) (UniProt O95747)
OXSR1 (human), sequence (O95747 whole entry, looked up): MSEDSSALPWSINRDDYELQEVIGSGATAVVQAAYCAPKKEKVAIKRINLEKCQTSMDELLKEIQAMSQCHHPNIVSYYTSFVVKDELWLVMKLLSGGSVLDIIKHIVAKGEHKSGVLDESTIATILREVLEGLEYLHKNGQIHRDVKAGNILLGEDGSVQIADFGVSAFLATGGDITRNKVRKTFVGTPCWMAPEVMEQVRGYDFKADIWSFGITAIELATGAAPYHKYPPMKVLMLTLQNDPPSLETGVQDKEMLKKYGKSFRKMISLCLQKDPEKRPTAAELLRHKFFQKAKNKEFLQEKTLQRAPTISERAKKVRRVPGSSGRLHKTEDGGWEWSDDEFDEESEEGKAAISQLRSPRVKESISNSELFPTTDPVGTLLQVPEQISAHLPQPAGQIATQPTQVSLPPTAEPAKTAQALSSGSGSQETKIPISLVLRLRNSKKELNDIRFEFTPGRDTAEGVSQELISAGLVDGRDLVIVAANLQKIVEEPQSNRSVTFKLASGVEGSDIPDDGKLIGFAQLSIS

[38] = target: ICK (human) (UniProt Q9UPZ9)
[39] = target: TBK1 (human) (UniProt Q9UHD2)
[40] = target: CDK4 CCND1 (human) (UniProt P11802+P24385)

Row | SMILES | kinase still bound, per cent of control [1] | kinase still bound, per cent of control [2] | kinase still bound, per cent of control [3] | kinase still bound, per cent of control [5] | kinase still bound, per cent of control [8] | kinase still bound, per cent of control [9] | kinase still bound, per cent of control [10] | kinase still bound, per cent of control [11] | kinase still bound, per cent of control [12] | kinase still bound, per cent of control [13] | kinase still bound, per cent of control [14] | kinase still bound, per cent of control [15] | kinase still bound, per cent of control [16] | kinase still bound, per cent of control [18] | kinase still bound, per cent of control [19] | kinase still bound, per cent of control [20] | kinase still bound, per cent of control [21] | kinase still bound, per cent of control [22] | kinase still bound, per cent of control [23] | kinase still bound, per cent of control [24] | further results
1 | COc1cc(N2CCN(C)CC2)ccc1Nc1nc(N)c(C(=O)c2c(Cl)cccc2Cl)s1 | 100% | 92% | 80% | 61% | 100% | 100% | 63% | 99% | 96% | 85% | 65% | 98% | 100% | 89% | 88% | 99% | 81% | 80% | 89% | 100% | kinase still bound, per cent of control [4]: 100%; kinase still bound, per cent of control [6]: 100%; kinase still bound, per cent of control [7]: 99%; kinase still bound, per cent of control [17]: 100%; kinase still bound, per cent of control [25]: 50%; kinase still bound, per cent of control [26]: 79%; kinase still bound, per cent of control [27]: 100%; kinase still bound, per cent of control [28]: 88%; kinase still bound, per cent of control [29]: 86%; kinase still bound, per cent of control [30]: 52%; kinase still bound, per cent of control [31]: 100%; kinase still bound, per cent of control [32]: 26%; kinase still bound, per cent of control [33]: 24%; kinase still bound, per cent of control [34]: 89%; kinase still bound, per cent of control [35]: 5.2%; kinase still bound, per cent of control [36]: 100%; kinase still bound, per cent of control [37]: 100%; kinase still bound, per cent of control [38]: 7.4%; kinase still bound, per cent of control [39]: 100%
2 | Nc1ccc(-c2ccc3ncc4ccc(=O)n(-c5cccc(C(F)(F)F)c5)c4c3c2)cn1 | 100% | 84% | 100% | 100% | 100% | 18% | 82% | 92% | 100% | 51% | 80% | 100% | 100% | 95% | 100% | 100% | 80% | 63% | 88% | 91% | kinase still bound, per cent of control [6]: 100%; kinase still bound, per cent of control [25]: 50%; kinase still bound, per cent of control [40]: 100%; kinase still bound, per cent of control [26]: 79%; kinase still bound, per cent of control [27]: 100%; kinase still bound, per cent of control [28]: 97%; kinase still bound, per cent of control [29]: 100%; kinase still bound, per cent of control [30]: 88%; kinase still bound, per cent of control [32]: 96%; kinase still bound, per cent of control [33]: 44%; kinase still bound, per cent of control [34]: 86%; kinase still bound, per cent of control [35]: 71%; kinase still bound, per cent of control [36]: 84%; kinase still bound, per cent of control [37]: 100%; kinase still bound, per cent of control [38]: 79%; kinase still bound, per cent of control [39]: 100%
3 | Cc1ccc2nc(NCCN)c3ncc(C)n3c2c1 | 46% | 78% | 100% | 100% | 100% | 92% | 44% | 32% | 100% | 92% | 100% | 100% | 100% | 100% | 100% | 88% | 97% | 0% | 8.8% | 87% | kinase still bound, per cent of control [4]: 100%; kinase still bound, per cent of control [7]: 100%; kinase still bound, per cent of control [17]: 100%; kinase still bound, per cent of control [25]: 83%; kinase still bound, per cent of control [40]: 58%; kinase still bound, per cent of control [26]: 100%; kinase still bound, per cent of control [27]: 66%; kinase still bound, per cent of control [28]: 74%; kinase still bound, per cent of control [29]: 98%; kinase still bound, per cent of control [30]: 100%; kinase still bound, per cent of control [31]: 31%; kinase still bound, per cent of control [32]: 100%; kinase still bound, per cent of control [33]: 41%; kinase still bound, per cent of control [34]: 96%; kinase still bound, per cent of control [35]: 87%; kinase still bound, per cent of control [36]: 96%; kinase still bound, per cent of control [37]: 100%; kinase still bound, per cent of control [38]: 100%; kinase still bound, per cent of control [39]: 100%
